According to patent US8653070B2, “Hepatitis C virus inhibitors” (Enanta Pharmaceuticals, Inc., priority 2009, dated 2014):
pEC50: −log10 of the molar value. Where two headings read alike, the source gives them in different places.

Tested on: HCV 1b genotype replicon
Assay: HCV replicon assay (qRT-PCR or luciferase), genotype-1b replicon
Assay type: cell-based
Details: Hepatitis C virus, HCV 1b replicon
Excerpt: HCV replicon cell lines (kindly provided by R. Bartenschlager) isolated from colonies as described by Lohman et. al. (Lohman et al. (1999) Science 285: 110-113, expressly incorporated by reference in its entirety) and used for all experiments. The HCV replicon has the nucleic acid sequence set forth in EMBL Accession No.: AJ242651, the coding sequence of which is from nucleotides 1801 to 8406.
The coding sequence of the published HCV replicon was synthesized and subsequently assembled in a modified plasmid pBR322 (Promega, Madison, Wis.) using standard molecular biology techniques. One replicon cell line (“SGR 11-7”) stably expresses HCV replicon RNA which consists of (i) the HCV 5′UTR fused to the first 12 amino acids of the capsid protein, (ii) the neomycin phosphotransferase gene (neo), (iii) the IRES from encephalomyocarditis virus (EMCV) and (iv) HCV NS2 to NS5B genes and the HCV 3′UTR. Another replicon cell line (“Huh-luc/neo-ET”) described by Vrolijk et. al. (Vrolijk et. al. (2003) Journal of Virological Methods 110:201-209, expressly incorporated by reference in its entirety) stably expresses HCV replicon RNA which consists of (i) the HCV 5′UTR fused to the first 12 amino acids of the capsid protein, (ii) the firefly luciferase reporter gene, (iii) the ubiquitin gene, (iv) the neomycin phosphotransferase gene (neo), (v) the IRES from encephalomyocarditis virus (EMCV) and (vi) HCV NS3 to NS5B genes that harbor cell culture adaptive mutations (E1202G, T12801, K1846T) and the HCV 3′UTR.
These cell lines are maintained at 37° C., 5% CO2, 100% relative humidity in DMEM (Cat#11965-084, Invitrogen), with 10% fetal calf serum (“FCS”, Invitrogen), 1% non-essential amino acids (Invitrogen), 1% of Glutamax (Invitrogen), 1% of 100× penicillin/streptomycin (Cat#15140-122, Invitrogen) and Geneticin (Cat#10131-027, Invitrogen) at 0.75 mg/ml or 0.5 mg/ml for 11-7 and Huh-luc/neo-ET cells, respectively.
EC50 values of single agent compounds and combinations are determined by HCV RNA detection using quantitative RT-PCR, according to the manufacturer's instructions, with a TAQMAN® One-Step RT-PCR Master Mix Reagents Kit (Cat# AB 4309169, Applied Biosystems) on an ABI Model 7500 thermocycler. The TAQMAN primers to use for detecting and quantifying HCV RNA obtained from Integrated DNA Technologies. HCV RNA is normalized to GAPDH RNA levels in drug-treated cells, which is detected and quantified using the Human GAPDH Endogenous Control Mix (Applied Biosystems, AB 4310884E). Total cellular RNA is purified from 96-well plates using the RNAqueous 96 kit (Ambion, Cat# AM1812). Chemical agent cytotoxicity is evaluated using an MTS assay according to the manufacturer's directions (Promega).
Since clinical drug resistance often develops in viral infections following single agent therapies, there is a need to assess the additive, antagonistic, or synergistic properties of combination therapies. We used the HCV replicon system to assess the potential use of the compound of the present invention or in combination therapies with Interferon alpha, cyclosporine analogs and inhibitors targeting other HCV proteins. The acute effects of a single or combinations of drugs are studied in the “Huh-luc/neo-ET” replicon with each chemical agent titrated in an X or Y direction in a 6 point two-fold dilution curve centered around the EC50 of each drug. Briefly, replicon cells are seeded at 7,000 cells per well in 90 ul DMEM (without phenol red, Invitrogen Cat.#31053-036) per well with 10% FCS, 1% non-essential amino acids, 1% of Glutamax and 1% of 100× penicillin/streptomycin and incubated overnight at 37° C., 5% CO2, 100% relative humidity. […]

[1] = read-out: Genotype-1b replicon EC50
[2] = read-out: Genotype-1b replicon EC50 Range

Compound	pEC50 [1]	pEC50 [2]
C=C1C[C@@H](c2nc3cc(C#Cc4ccc(-c5c[nH]c([C@@H]6CCCN6C(=O)[C@@H](NC(=O)OC)C(C)C)n5)cc4)ccc3[nH]2)N(C(=O)[C@@H](NC(=O)OC)C(C)C)C1 [Example 83]	11.24	> 11.00
C=C1C[C@@H](c2nc(-c3ccc(-c4ccc(-c5c[nH]c([C@@H]6CCCN6C(=O)[C@@H](NC(=O)OC)C(C)C)n5)cc4)cc3)c[nH]2)N(C(=O)[C@@H](NC(=O)OC)C(C)C)C1 [Example 252]	10.95	9.00 to 11.00
C=C1C[C@@H](c2nc(-c3ccc(C#Cc4ccc5[nH]c([C@@H]6CCCN6C(=O)[C@@H](NC(=O)OC)C(C)C)nc5c4)cc3)c[nH]2)N(C(=O)[C@@H](NC(=O)OC)C(C)C)C1 [Example 300]	11.36	> 11.00
CON=C1C[C@@H](c2nc3cc(C#Cc4ccc(-c5c[nH]c([C@@H]6CCCN6C(=O)[C@@H](NC(=O)OC)C(C)C)n5)cc4)ccc3[nH]2)N(C(=O)[C@@H](NC(=O)OC)C(C)C)C1 [Example 316]		> 11.00
C=C1C[C@@H](c2nc(-c3ccc(C#Cc4ccc5[nH]c([C@@H]6C[C@@]7(CCCO7)CN6C(=O)[C@@H](NC(=O)OC)C(C)C)nc5c4)cc3)c[nH]2)N(C(=O)[C@@H](NC(=O)OC)C(C)C)C1 [Example 319]		9.00 to 11.00
C=C1C[C@@H](c2nc(-c3ccc(C#Cc4ccc5[nH]c([C@@H]6C[C@@]7(CCOC7)CN6C(=O)[C@@H](NC(=O)OC)C(C)C)nc5c4)cc3)c[nH]2)N(C(=O)[C@@H](NC(=O)OC)C(C)C)C1 [Example 321]		9.00 to 11.00
C=C1C[C@@H](c2nc(-c3ccc(C#Cc4ccc5[nH]c([C@@H]6C[C@]7(CCOC7)CN6C(=O)[C@@H](NC(=O)OC)C(C)C)nc5c4)cc3)c[nH]2)N(C(=O)[C@@H](NC(=O)OC)C(C)C)C1 [Example 323]	11.04	> 11.00
C=C1C[C@@H](c2nc(-c3ccc(C#Cc4ccc5[nH]c([C@@H]6CC7(CC7)CN6C(=O)[C@@H](NC(=O)OC)C(C)C)nc5c4)cc3)c[nH]2)N(C(=O)[C@@H](NC(=O)OC)C(C)C)C1 [Example 325]	11.23	> 11.00
C=C1C[C@@H](c2nc(-c3ccc(C#Cc4ccc5[nH]c([C@@H]6C[C@@]7(CC=CCO7)CN6C(=O)[C@@H](NC(=O)OC)C(C)C)nc5c4)cc3)c[nH]2)N(C(=O)[C@@H](NC(=O)OC)C(C)C)C1 [Example 327]		> 11.00
C=C1C[C@@H](c2nc(-c3ccc(C#Cc4ccc5[nH]c([C@@H]6C[C@]7(CCCOC7)CN6C(=O)[C@@H](NC(=O)OC)C(C)C)nc5c4)cc3)c[nH]2)N(C(=O)[C@@H](NC(=O)OC)C(C)C)C1 [Example 329]		> 11.00
C=C1C[C@@H](c2nc(-c3ccc(C#Cc4ccc5[nH]c([C@@H]6C[C@@]7(CCCOC7)CN6C(=O)[C@@H](NC(=O)OC)C(C)C)nc5c4)cc3)c[nH]2)N(C(=O)[C@@H](NC(=O)OC)C(C)C)C1 [Example 331]	10.86	9.00 to 11.00
COC(=O)N[C@H](C(=O)N1CCC[C@H]1c1nc(-c2ccc(C#Cc3ccc4[nH]c([C@@H]5CC(=C6CC6)CN5C(=O)[C@@H](NC(=O)OC)C(C)C)nc4c3)cc2)c[nH]1)C(C)C [Example 334]	10.89	9.00 to 11.00
C=C1C[C@@H](c2nc(-c3ccc(C#Cc4ccc5[nH]c([C@@H]6CC(=C)CN6C(=O)[C@@H](NC(=O)OC)C(C)C)nc5c4)cc3)c[nH]2)N(C(=O)[C@@H](NC(=O)OC)C(C)C)C1 [Example 336]	11.19	> 11.00
